Reference: patent publication US20150183737A1, “COMPOSITIONS AND METHODS FOR SUBSTRATE-SELECTIVE INHIBITION OF ENDOCANNABINOID OXYGENATION” (Vanderbilt University, priority 2012, published 2015)
Entries after “also recorded” stand apart in the source; their conditions may differ. Like-named read-outs stand apart in the source and are kept apart here.

What was measured:
COX-2 = biological target: T1, COX-2 (Mus musculus, UniProt Q05769); test: Inhibition of COX-2 oxygenation by acetaminophen and its metabolites; assay type: biochemical
T1 sequence (Q05769 18-604): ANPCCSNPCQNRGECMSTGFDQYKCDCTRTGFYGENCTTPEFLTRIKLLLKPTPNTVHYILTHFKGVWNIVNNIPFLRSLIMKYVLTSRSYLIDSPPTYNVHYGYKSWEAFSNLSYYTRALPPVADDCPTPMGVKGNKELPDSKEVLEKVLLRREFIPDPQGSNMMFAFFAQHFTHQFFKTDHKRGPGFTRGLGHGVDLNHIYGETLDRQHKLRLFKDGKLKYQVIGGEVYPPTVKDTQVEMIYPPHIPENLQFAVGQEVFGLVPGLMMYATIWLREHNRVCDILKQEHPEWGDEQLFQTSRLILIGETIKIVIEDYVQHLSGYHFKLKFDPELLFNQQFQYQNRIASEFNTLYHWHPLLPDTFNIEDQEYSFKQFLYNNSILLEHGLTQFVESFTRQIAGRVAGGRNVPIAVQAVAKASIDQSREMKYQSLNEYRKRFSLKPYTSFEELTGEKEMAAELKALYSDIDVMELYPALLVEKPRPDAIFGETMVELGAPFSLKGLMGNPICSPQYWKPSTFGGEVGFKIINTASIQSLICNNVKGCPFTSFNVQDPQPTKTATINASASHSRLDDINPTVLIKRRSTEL

[1] = biological target: T2, COX-2 in lipopolysaccharide-activated RAW264.7 cells (Mus musculus, UniProt Q05769); test: 2-AG oxygenation by lipopolysaccharide-activated RAW264.7 cells; assay type: cell-based
T2 construct: endogenous in cells; host or cells: RAW 264.7 macrophages stimulated with LPS (and GM-CSF / interferon γ where described)
T2 sequence (Q05769 18-604): T1 sequence (Q05769 18-604)

[2] = biological target: T3, COX-2 in RAW 264.7 macrophages (Mus musculus, UniProt Q05769); test: RAW cells assay: oxygenation of 2-AG and AA; assay type: cell-based
T3 construct: endogenous in cells; host or cells: RAW 264.7 macrophages stimulated with LPS (and GM-CSF / interferon γ where described)
T3 sequence (Q05769 18-604): T1 sequence (Q05769 18-604)
Procedure: Two hours after stimulation, varying doses of inhibitor were added to the cell media and 6 hr after stimulation the media were collected and analyzed by LC-MS-MS for prostaglandin levels.
The cells were then stimulated overnight with 20 ng/ml of granulocyte-macrophage colony-stimulating factor. The media was replaced in the morning with DMEM with GLUTAMAX® and the cells were stimulated with 100 ng/ml lipopolysaccharide and 20 units/ml interferon γ. Two hours after stimulation varying doses of inhibitor were added to the cell media and 6 hours after stimulation the media was collected and extracted in acidified ethyl acetate spiked with deuterated internal standards. The organic layer was dried down under a stream of nitrogen gas and reconstituted in 1:1 water:methanol and analyzed by LC-MS/MS for prostaglandin levels using the same instrumentation, column, solvents and conditions as described for the in vitro assay above.

[3] = In vivo mouse assay: plasma levels; parameters: species or system C57BL/6 mice
purified murine COX-2 = biological target: T4, purified murine COX-2 (Mus musculus, UniProt Q05769); test: Inhibition of mCOX-2 dependent oxygenation of 2-AG and AA by profens in vitro; assay type: biochemical; parameters: made in house; host or cells: insect cells; details: achiral profens; for inhibition at 10 µM: at 10 μM inhibitor
T4 sequence (Q05769 18-604): T1 sequence (Q05769 18-604)
Procedure: Desired concentrations of inhibitor in DMSO or blank (DMSO) were incubated with mCOX-2 (40 nM) for 3 minutes in 100 mM Tris-HCl with 0.5 mM phenol, pH 8.0 at 37° C. After pre-incubation of enzyme and inhibitor, 5 μM of AA or 2-AG was added at 37° C. Thirty seconds later, the reaction was quenched with 200 μL of ice-cold ethyl acetate containing 0.5% acetic acid (v/v) and 1 μM PGE2-d4 and PGE2-G-d5. The solution was then vortexed and the aqueous layer frozen. The organic layer was removed and evaporated to near-dryness under nitrogen. The samples were reconstituted in 1:1 MeOH:H2O and chromatographed using a LUNA® C18(2) column (50 2 mm, 3 μm; Phenomenex, Torrance, Calif., United States of America). […] Analyte peak areas were normalized to the appropriate internal standard to determine the amount of product formation, and inhibition was determined by normalization to a DMSO control.

[4] = Chiral HPLC of (R)-profen-treated DRG extracts (racemization); assay type: in vitro ADME, mouse
Description: A Daicel chiralpak chiral column was used in conjunction with a normal-phase HPLC gradient to separate the profen enantiomers.

FAAH = biological target: T5, FAAH (Homo sapiens, UniProt O00519); details: in vitro; Bishay et al., 2010; cited from earlier work
T5 sequence (O00519 1-579): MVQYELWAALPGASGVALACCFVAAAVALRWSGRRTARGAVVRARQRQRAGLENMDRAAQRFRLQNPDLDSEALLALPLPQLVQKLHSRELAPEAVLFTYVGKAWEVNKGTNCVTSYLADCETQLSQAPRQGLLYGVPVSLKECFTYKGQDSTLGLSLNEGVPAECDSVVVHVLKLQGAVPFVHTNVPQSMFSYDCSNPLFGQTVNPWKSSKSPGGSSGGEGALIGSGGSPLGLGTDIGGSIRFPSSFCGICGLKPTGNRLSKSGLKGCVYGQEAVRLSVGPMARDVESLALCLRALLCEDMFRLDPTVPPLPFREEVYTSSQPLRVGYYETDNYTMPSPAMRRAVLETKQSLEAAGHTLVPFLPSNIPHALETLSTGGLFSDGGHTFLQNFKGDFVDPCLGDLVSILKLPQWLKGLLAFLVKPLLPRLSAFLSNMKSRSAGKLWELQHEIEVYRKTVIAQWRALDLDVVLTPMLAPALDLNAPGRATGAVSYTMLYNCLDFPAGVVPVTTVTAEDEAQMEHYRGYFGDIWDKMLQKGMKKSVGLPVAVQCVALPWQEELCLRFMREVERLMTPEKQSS

[5] = system: brain eCB, AA and PG levels; test: Brain eCB, NAE, MAG, AA and PG levels after i.p. injection; assay type: in vivo, mice; details: 10 mg/kg i.p., 2 hours
Procedure: 5-7 week old male ICR mice were used for all experiments with the exception of knockout animals (Harlan, Indianapolis, Ind., United States of America). Mice were housed 5 per […]. All behavioral tests were conducted during the light cycle between 0900 and 1700. KO and WT littermate controls for FAAH^(−/−) and COX-2^(−/−) mice were derived from heterozygote breeding pairs, bred and genotyped as described in Uddin et al., 2011. CB1^(−/−) mice were bred from homozygote breeding pairs and genotyped as described in Pan et al., 2008. Mice were group-housed on a 12:12 light-dark cycle (lights on at 06:00), with food and water available ad libitum. All animal studies were approved by the Vanderbilt Institutional Animal Care and Use Committee and conducted in accordance with the Guide for the Care and Use of Laboratory Animals of the United States National Institutes of Health.
(§1) Mice were sacrificed by cervical dislocation and decapitation. The brain, lungs, liver, stomach, small intestines, and kidneys were then rapidly removed and frozen on a metal block in dry ice. The tissue was then placed in a tube and stored at −80° C. until extraction, usually one day after harvesting. For PG and eCB analysis, lipid extraction from tissue was carried out as described in Patel et al., 2009.
(§2) Analytes were quantified using LC-MS/MS on a Quantum triple-quadrupole mass spectrometer in positive-ion mode using selected reaction monitoring. Detection of eicosanoids was performed as described in Kingsley & Marnett, 2007. For fatty acid analysis the mobile phases used were 80 μM AgOAc with 0.1% (v/v) acetic acid in H2O (solvent A) and 120 μM AgOAc with 0.1% (v/v) acetic acid in MeOH (solvent B). The analytes were eluted using a gradient from 20% A to 99% B over 5 minutes. The transitions used were m/z 300→282 for PEA, m/z 328→310 for SEA, m/z 434→416 for OEA, m/z 456→438 for AEA, m/z 464→446 for AEA-d8, m/z 331→257 for 2-PG, m/z 359→285 for 2-SG, m/z 463→389 for 2-OG, m/z 485→411 for 2-AG, m/z 493→419 for 2-AG-d8, m/z 519→409 for AA, and m/z 527→417 for AA-d8. Peak areas for the analytes were normalized to the appropriate internal standard and then normalized to tissue mass for in vivo samples.

[6] = system: peripheral tissue eCB, NAE, MAG and PG levels; test: Peripheral tissue NAE, MAG and PG levels after i.p. injection; assay type: in vivo, mice; details: liver
Procedure: as §1
as §2, with “samples. […]” for “samples.”

ICR mice [7] = test: Novel open field test; assay type: in vivo; details: 10 mg/kg
Procedure: Animals were tested for open-field activity in a novel environment one hour after i.p. injection of compound as described in Sumislawski et al., 2011. Briefly, one-hour sessions were performed using automated experimental chambers (27.9 27.9 cm; MEDOFA-510; MED Associates, Ga., Vermont, United States of America) under constant illumination within a sound-attenuated room. Analysis of open field activity was performed using Activity Monitor v5.10 (MED Associates).

ICR mice [8] = test: Light-dark box; assay type: in vivo; details: 10 mg/kg
ICR mice [9] = test: Elevated plus-maze (EPM); assay type: in vivo; details: 10 mg/kg
ICR mice [10] = test: Rectal temperature, catalepsy and hot plate antinociception; details: 10 mg/kg i.p.
[11] = AA 5 μM, read-out: AA % Inhibition

## CCCCC/C=C\C/C=C\C/C=C\C/C=C\CCCC(=O)Nc1ccc(O)cc1 [AM-404, N-(4-hydroxyphenyl)arachidonoylamide]
COX-2
  Selectivity for inhibition of 2-AG and AEA oxygenation compared to AA oxygenation: 700 fold
COX-2; in the absence of substrate
  Dissociation from COX-2: slow
COX-2; in the presence of AA
  Dissociation from COX-2: rapid
COX-2; read-out: IC50 for inhibition of 2-AG oxygenation
  IC50: 0.097 µM
[1]
  IC50: 0.046 µM

## O=C(O)Cc1ccc(-c2ccccc2)c(F)c1 [Compound 3a, 2-(2-fluoro-[1,1′-biphenyl]-4-yl)acetic acid]
[2]; RAW264.7, at 5 μM compound
  inhibition at 5 µM: 60%
[3]; 10 mg/kg i.p. at 0, 8, 24, 32, 48 and 56 hr, sixteen hr after the last injection
  Average plasma concentration: not detected
[3]; male, C57BL/6, mouse, plasma, intraperitoneal, 10 mg/kg, read-out: Half-life (t1/2) in mouse plasma
  half-life: 2 to 3 h
[3]; single 10 mg/kg i.p. injection, 1 hr
  concentration at 72 h: 68 µM
[3]; single 10 mg/kg i.p. injection, 2 hr
  concentration at 72 h: 50 µM
[3]; single 10 mg/kg i.p. injection, 4 hr
  concentration at 72 h: 6 µM
Purified murine COX-2; [11]
  inhibition at 10 µM: 7%

## O=C(O)C1(c2ccc(-c3ccccc3)c(F)c2)CC1 [Compound 5a, 1-(2-fluoro-[1,1′-biphenyl]-4-yl)cyclopropanecarboxylic acid]
[2]; RAW264.7, at 25 μM compound
  inhibition at 25 µM: 55%
[2]; conversion of 2-AG to PGE2-G/PGD2-G
  IC50: 10.2 µM
Purified murine COX-2; [11]
  inhibition at 10 µM: 0%
Purified murine COX-2; murine COX-2 40 nM, 3 min preincubation, 2-AG 5 μM, 37° C., 30 s, mean ± SD, read-out: 2-AG IC50
  IC50: 2.3 µM
Purified murine COX-2; read-out: Maximum inhibition of 2-AG oxygenation, 2-AG 5 μM
  inhibition at 10 µM: 87%

## C[C@@H](C(=O)O)c1ccc(-c2ccccc2)c(F)c1 [Compound 7a, (R)-flurbiprofen]
[4]
  Conversion to the (S)-enantiomer: did not occur
[3]; male, C57BL/6, mouse, plasma, intraperitoneal, 10 mg/kg i.p. at 0, 8, 24, 32, 48 and 56 hr, sixteen hr after the last injection
  concentration at 72 h: 20 µM
FAAH
  IC50: > 1000 µM

## CC(C)Cc1ccc([C@@H](C)C(=O)O)cc1 [Compound 7c, (R)-ibuprofen]
[4]; DRG extracts, chiral HPLC
  Conversion to the (S)-enantiomer: did not occur

## O=C(Nc1cccnc1)N1CCC(Cc2cccc(Oc3ccc(C(F)(F)F)cn3)c2)CC1 [PF-3845, N-3-pyridinyl-4-[[3-[[5-(trifluoromethyl)-2-pyridinyl]oxy]phenyl]methyl]-1-piperidinecarboxamide, reference compound]
[5]
  Brain levels of NAEs other than AEA: robustly increased
[5]; vs vehicle
  Brain AEA levels: robustly increased
[6]
  Liver NAE levels: robust increases
ICR mice [7]
  Center distance travelled and center time in the open-field arena: increased
ICR mice [8]
  Light-zone time: significantly increased
  Number of light-zone entries: significantly increased
  Overall locomotor activity in the light-dark box: without significantly affecting
ICR mice [9]
  Open arm latency: significantly reduced; also recorded: decreased
  Other EPM parameters (open arm time, total distance traveled): did not affect; also recorded: did not increase

## Cc1c(C(=O)c2cccc3ccccc23)c2cccc3c2n1[C@H](CN1CCOCC1)CO3 [Win-55212-2]
ICR mice [10]
  Antinociception in the hot plate test: induced
  Catalepsy: induced
  Hypothermia (rectal temperature): induced
